Experimental data: patent US6576638B1, “Use of substance P antagonists in the treatment of the adenocarcinomas” (Biopolis S.p.A., priority 1999, dated 2003)
Where no end group is shown, it is not given here.

How the values were obtained:
NK-1 receptor [1] = target: T1, NK-1 receptor (Homo sapiens, UniProt P25103); details: human tissues; cited from earlier work
T1 construct: pA2>6.0 both in murine and human tissues; host or cells: human tissues (not specified)

NK-1 receptor [2] = target: T2, NK-1 receptor (Rattus norvegicus, UniProt P14600); details: rat tissues; cited from earlier work
T2 construct: pA2>6.0 both in murine and human tissues; host or cells: rat ('murine') tissues (not specified)

[3] = system: PC-3 human prostatic cancer cell lines; experiment: Vascular density quantification (CD31 immunohistochemistry) in orthotopic PC-3 prostate tumors in nude mice; type: in vivo, male athymic nude mices; details: compared to control groups (L-703,606 also vs SP treated mice); p<0.05; 1 ng up to 1 mg; three up to 180 days
Experimental: (§1) For this studies has been used male athymic nude mices (Harlan). The mices were housed in laminar flow cabinet under pathogenic free conditions and used at 4-5 weeks of age.
(§2) The PC-3 human prostatic cancer cell lines (ECACC) were mantained in Minimum essential medium (GIBCO BRL) For in vivo studies, tumor cells in exponential growth phase were harvested by a 120 seconds treatment with tripsyn in 0.02% EDTA. After that the cells were resuspended in saline solution. 20 μl (10^5 cells) of saline solution was inoculated in nude mice prostate. The tumors were taken at different times (three up to 180 days) for analysis.
(§3) Animals were divided in groups (10 animals each one) and treated with different solutions:
(§4) physiological solution, -Sustance P (1 ng up to 1 mg), -L-703,606 (1 ng up to 1 mg), −L-703,606+Leuprolide Acetate (using dosages reported in table 1 and 2).
(§5) The treatments were made at different time (one at day until one at week). For different periods of time (three days up to 180 days).
Frozen sections of tumors have been fixed in Acetone, acetone/chloroform, acetone.
The presence of new blood vessels has been highlighted using the Rat anti-Mouse CD31 antibody, a Goat anti-Rat POX as a secondary antibody and DAB as a chromogen substrate. For quantification of blood vessels an image analysis system was employed.

[4] = system: PC-3 human prostatic cancer cell lines; experiment: Tumoral mass weight of orthotopic PC-3 prostate tumors in nude mice; type: in vivo, male athymic nude mices; details: compared to either control groups or SP treated mice; p<0.05; from 3 up to 180 days
Experimental: as §1, §2, §3, §4, §5
The animals were maitained under observation for three up to 180 days. Autoptic examinations were performed in all animals and the tumoral mass weighed.

T1 sequence (P25103 whole entry): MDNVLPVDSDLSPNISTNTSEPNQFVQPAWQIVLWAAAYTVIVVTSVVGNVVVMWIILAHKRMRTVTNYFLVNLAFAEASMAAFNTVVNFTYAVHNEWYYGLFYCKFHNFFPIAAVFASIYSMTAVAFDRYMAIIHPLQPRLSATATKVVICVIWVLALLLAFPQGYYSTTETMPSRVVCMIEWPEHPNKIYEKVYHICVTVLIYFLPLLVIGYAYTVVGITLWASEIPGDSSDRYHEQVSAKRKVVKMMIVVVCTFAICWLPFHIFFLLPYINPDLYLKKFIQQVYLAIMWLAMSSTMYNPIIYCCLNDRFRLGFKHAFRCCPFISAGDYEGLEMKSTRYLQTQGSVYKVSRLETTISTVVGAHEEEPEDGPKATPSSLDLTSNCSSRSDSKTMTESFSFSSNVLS
T2 sequence (P14600 whole entry): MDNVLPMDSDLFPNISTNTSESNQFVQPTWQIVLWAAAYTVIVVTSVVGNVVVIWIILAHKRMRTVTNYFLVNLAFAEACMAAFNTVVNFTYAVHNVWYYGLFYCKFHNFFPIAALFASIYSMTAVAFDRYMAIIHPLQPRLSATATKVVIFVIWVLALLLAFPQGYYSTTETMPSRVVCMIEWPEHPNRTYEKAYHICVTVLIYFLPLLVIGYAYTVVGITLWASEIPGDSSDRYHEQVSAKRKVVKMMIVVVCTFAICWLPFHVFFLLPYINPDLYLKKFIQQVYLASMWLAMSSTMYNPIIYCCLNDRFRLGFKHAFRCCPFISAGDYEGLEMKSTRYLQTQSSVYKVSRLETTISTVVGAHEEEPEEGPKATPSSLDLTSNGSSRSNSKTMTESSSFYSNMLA

Row | Molecule | pA2 human (NK-1 receptor [1]) | pA2 rat (NK-1 receptor [2]) | CD 31 values (blood vessels density) [3] | tumoral mass weight [4]
1 | CC(C)Oc1cccc(CC(=O)N2CCC[C@](CC[N+]34CCC(c5ccccc5)(CC3)CC4)(c3ccc(Cl)c(Cl)c3)C2)c1 [SR 140333] | 9.8 | 7.4 | – | –
2 | COc1ccccc1CN[C@H]1CCCN[C@H]1c1ccccc1 [CP 99994] | 8.9 | 6.1 | – | –
3 | COc1ccccc1CC(=N)N1C[C@@H]2C(=O)CCC(c3ccccc3)(c3ccccc3)[C@@H]2C1 [RP 67580] | 7.2 | 8.2 | – | –
4 | substance P (RPKPQQFFGLM; ends and bridges not checked; UniProt P20366 58-68, looked up) [SP, substance P (SP), plays a role in angiogenesis stimulation] | – | – | statistically significant increase | –
5 | Ic1ccccc1CN[C@@H]1C2CCN(CC2)[C@@H]1C(c1ccccc1)c1ccccc1 (racemic) [L-703,606] | – | – | statistically significant reduction | statistically significant reduction
6 | COc1ccc(-n2nnnc2C(F)(F)F)cc1CN[C@H]1CCCN[C@H]1c1ccccc1 [GR 205171] | >6.0 | >6.0 | – | –
7 | Cc1ccc(CC(=O)N(C)[C@H](Cc2ccc3ccccc3c2)C(=O)N[C@@H]2CCCC[C@@H]2NC(=O)c2c[nH]c3ccccc23)cc1 [MEN 11467] | >6.0 | >6.0 | – | –
8 | COc1ccccc1CN[C@H]1C2CCN(CC2)[C@H]1C(c1ccccc1)c1ccccc1 [CP 96345] | 9.5 | 6.8 | – | –
9 | CN(Cc1ccccc1)C(=O)[C@H](Cc1ccc2ccccc2c1)NC(=O)[C@@H]1C[C@@H](O)CN1C(=O)c1cn(C)c2ccccc12 [FK 888] | 9.1 | 6.0 | – | –
10 | Cc1cc(C)cc(C(=O)N2CC[C@H](NCCc3ccccc3)C[C@H]2Cc2ccccc2)c1 [CGP 47899] | >6.0 | >6.0 | – | –
